According to article PMC5218480 (PLoS ONE, 2017):

Test system: MV-4-11 cells
Assay: Gene expression microarray analysis (Affymetrix PrimeView) and GSEA
Type: cell-based, human
Design: RFU PODN (11730768_x_at) / Fold change /veh PODN (11730768_x_at) / RFU LINC00158 (11744669_a_at) / Fold change /veh LINC00158 (11744669_a_at) / RFU DUSP10 (11751237_a_at) / Fold change /veh DUSP10 (11751237_a_at) / RFU ID3 (11757404_x_at) / Fold change /veh ID3 (11757404_x_at) / RFU PLEKHG5 (11737974_s_at) / Fold change /veh PLEKHG5 (11737974_s_at) / RFU LRRC4B (11730491_at) / Fold change /veh LRRC4B (11730491_at) / RFU GIMAP4 (11747438_a_at) / Fold change /veh GIMAP4 (11747438_a_at) / RFU KRT8 (11758183_x_at) / Fold change /veh KRT8 (11758183_x_at) / RFU CNN1 (11734310_a_at) / Fold change /veh CNN1 (11734310_a_at) / RFU VPS37D (11726825_at) / Fold change /veh VPS37D (11726825_at) / RFU C10orf10 (11716522_x_at) / Fold change /veh C10orf10 (11716522_x_at) / RFU KIR2DL2 /// KIR2DL4 /// KIR2DL5A /// KIR2DL5B /// KIR2DS1 /// KIR2DS2 /// KIR2DS3 /// KIR2DS4 /// KIR3DL3 /// KIR3DL3 /// KIR3DS1 (11738374_at) / Fold change /veh KIR2DL2 /// KIR2DL4 /// KIR2DL5A /// KIR2DL5B /// KIR2DS1 /// KIR2DS2 /// KIR2DS3 /// KIR2DS4 /// KIR3DL3 /// KIR3DL3 /// KIR3DS1 (11738374_at) / RFU C1QL1 (11718748_at) / Fold change /veh C1QL1 (11718748_at) / RFU TMPRSS4 (11747572_a_at) / Fold change /veh TMPRSS4 (11747572_a_at) / RFU HAMP (11756126_x_at) / Fold change /veh HAMP (11756126_x_at) / RFU RNFT2 (11725882_a_at) / Fold change /veh RNFT2 (11725882_a_at) / RFU NR4A2 (11747474_a_at) / Fold change /veh NR4A2 (11747474_a_at) / RFU ABCC12 (11746883_a_at) / Fold change /veh ABCC12 (11746883_a_at) / RFU TMEM136 (11760407_x_at) / Fold change /veh TMEM136 (11760407_x_at) / RFU CLDN22 /// WWC2 (11732394_at) / Fold change /veh CLDN22 /// WWC2 (11732394_at) / RFU HLA-DPB1 (11760878_x_at) / Fold change /veh HLA-DPB1 (11760878_x_at) / RFU SPINT1 (11716480_a_at) / Fold change /veh SPINT1 (11716480_a_at) / RFU GAP43 (11754022_s_at) / Fold change /veh GAP43 (11754022_s_at) / RFU A4GNT (11735810_at) / Fold change /veh A4GNT (11735810_at) / RFU PRB3 (11715151_x_at) / Fold change /veh PRB3 (11715151_x_at) / RFU TUBB4B (11761932_at) / Fold change /veh TUBB4B (11761932_at) / RFU CAPN14 (11732068_a_at) / Fold change /veh CAPN14 (11732068_a_at) / RFU TMCC2 (11721928_a_at) / Fold change /veh TMCC2 (11721928_a_at) / RFU IRGQ (11745062_a_at) / Fold change /veh IRGQ (11745062_a_at) / RFU FAM174B (11720279_a_at) / Fold change /veh FAM174B (11720279_a_at) / RFU TMPRSS4 (11748680_a_at) / Fold change /veh TMPRSS4 (11748680_a_at) / RFU FAM212B (11763350_a_at) / Fold change /veh FAM212B (11763350_a_at) / RFU PLEKHG5 (11743358_a_at) / Fold change /veh PLEKHG5 (11743358_a_at) / RFU ZSCAN30 (11745921_a_at) / Fold change /veh ZSCAN30 (11745921_a_at) / RFU CMKLR1 (11741424_a_at) / Fold change /veh CMKLR1 (11741424_a_at) / RFU LOC101060620 /// MAPK8IP1 (11723275_at) / Fold change /veh LOC101060620 /// MAPK8IP1 (11723275_at) / RFU SPTSSB (11747773_x_at) / Fold change /veh SPTSSB (11747773_x_at) / RFU PRSS12 (11739890_at) / Fold change /veh PRSS12 (11739890_at) / RFU BIN1 (11741810_x_at) / Fold change /veh BIN1 (11741810_x_at) / RFU WNT11 (11732464_a_at) / Fold change /veh WNT11 (11732464_a_at) / RFU C10orf10 (11716521_a_at) / Fold change /veh C10orf10 (11716521_a_at) / RFU C5orf56 (11738089_at) / Fold change /veh C5orf56 (11738089_at) / RFU CYB561 (11721691_x_at) / Fold change /veh CYB561 (11721691_x_at) / RFU ANKRD19P (11752326_a_at) / Fold change /veh ANKRD19P (11752326_a_at) / RFU OR2T12 /// OR2T33 /// OR2T8 (11738714_s_at) / Fold change /veh OR2T12 /// OR2T33 /// OR2T8 (11738714_s_at) / RFU VCAN (11748164_a_at) / Fold change /veh VCAN (11748164_a_at) / RFU JSRP1 (11732532_at) / Fold change /veh JSRP1 (11732532_at) / RFU KRTAP10-11 (11738290_x_at) / Fold change /veh KRTAP10-11 (11738290_x_at) / RFU MYO3A (11730013_a_at) / Fold change /veh MYO3A (11730013_a_at) / RFU EBF3 (11725865_a_at) / Fold change /veh EBF3 (11725865_a_at) / RFU CAMK2N1 (11719241_x_at) / Fold change /veh CAMK2N1 (11719241_x_at) / RFU C5orf56 (11738088_a_at) / Fold change /veh C5orf56 (11738088_a_at) / RFU OLFML3 (11715873_a_at) / Fold change /veh OLFML3 (11715873_a_at) / RFU LOC100653217 /// NTM (11731650_a_at) / Fold change /veh LOC100653217 /// NTM (11731650_a_at) / RFU MAPK11 (11762145_a_at) / Fold change /veh MAPK11 (11762145_a_at) / RFU FIZ1 (11724087_x_at) / Fold change /veh FIZ1 (11724087_x_at) / RFU OASL (11726364_x_at) / Fold change /veh OASL (11726364_x_at) / RFU SOX15 (11748057_x_at) / Fold change /veh SOX15 (11748057_x_at) / RFU CD79A (11719716_a_at) / Fold change /veh CD79A (11719716_a_at) / RFU HIST1H1D (11736915_at) / Fold change /veh HIST1H1D (11736915_at) / RFU CASKIN2 (11723855_a_at) / Fold change /veh CASKIN2 (11723855_a_at) / RFU LOC730098 (11760151_x_at) / Fold change /veh LOC730098 (11760151_x_at) / RFU OR4N2 (11742367_at) / Fold change /veh OR4N2 (11742367_at) / RFU PRRT2 (11749266_a_at) / Fold change /veh PRRT2 (11749266_a_at) / RFU SNX32 (11753110_a_at) / Fold change /veh SNX32 (11753110_a_at) / RFU CDHR5 (11726645_a_at) / Fold change /veh CDHR5 (11726645_a_at) / RFU RCAN1 (11760418_a_at) / Fold change /veh RCAN1 (11760418_a_at) / RFU FAM167A (11723789_a_at) / Fold change /veh FAM167A (11723789_a_at) / RFU FAM26E (11764081_at) / Fold change /veh FAM26E (11764081_at) / RFU ISYNA1 (11749810_s_at) / Fold change /veh ISYNA1 (11749810_s_at) / RFU ACY1 (11761880_at) / Fold change /veh ACY1 (11761880_at) / RFU 11764098_at / Fold change /veh 11764098_at / RFU SAMD14 (11745864_x_at) / Fold change /veh SAMD14 (11745864_x_at) / RFU NPB (11741838_a_at) / Fold change /veh NPB (11741838_a_at) / RFU TMPRSS6 (11731388_a_at) / Fold change /veh TMPRSS6 (11731388_a_at) / RFU KRTAP10-2 (11738614_at) / Fold change /veh KRTAP10-2 (11738614_at) / RFU ARHGAP8 /// PRR5-ARHGAP8 (11727945_x_at) / Fold change /veh ARHGAP8 /// PRR5-ARHGAP8 (11727945_x_at) / RFU KRTAP5-7 /// NADSYN1 (11734609_at) / Fold change /veh KRTAP5-7 /// NADSYN1 (11734609_at) / RFU RASL12 (11751679_a_at) / Fold change /veh RASL12 (11751679_a_at) / RFU CDKN2B (11736163_a_at) / Fold change /veh CDKN2B (11736163_a_at) / RFU PRF1 (11729649_at) / Fold change /veh PRF1 (11729649_at) / RFU, ZNF638 /// ZNF638-IT1 / Fold change vs veh, ZNF638 /// ZNF638-IT1 / RFU, PANK3 / Fold change vs veh, PANK3 / RFU, SH3YL1 / Fold change vs veh, SH3YL1 / RFU, ZEB2 / Fold change vs veh, ZEB2 / RFU, NRIP1 / Fold change vs veh, NRIP1 / RFU, PTTG1IP / Fold change vs veh, PTTG1IP / RFU, CAPN2 / Fold change vs veh, CAPN2 / RFU, MED14 / Fold change vs veh, MED14 / RFU, SNORA58 / Fold change vs veh, SNORA58 / RFU, C1orf63 / Fold change vs veh, C1orf63 / RFU, LRRFIP1 / Fold change vs veh, LRRFIP1 / RFU, NDUFAF7 / Fold change vs veh, NDUFAF7 / RFU, SLC12A2 / Fold change vs veh, SLC12A2 / RFU, IBTK / Fold change vs veh, IBTK / RFU, ESF1 / Fold change vs veh, ESF1 / Fold change vs veh, TMEM50B / RFU, TAOK1 / Fold change vs veh, TAOK1 / RFU, ACBD3 / Fold change vs veh, ACBD3 / RFU, TMA16 / Fold change vs veh, TMA16 / RFU, RWDD3 / Fold change vs veh, RWDD3 / RFU, BCAT1 / Fold change vs veh, BCAT1 / RFU, EDEM3 / Fold change vs veh, EDEM3 / RFU, TMEM33 / Fold change vs veh, TMEM33 / RFU, WDR75 / Fold change vs veh, WDR75 / RFU, AHCTF1 / Fold change vs veh, AHCTF1 / RFU, TFRC / Fold change vs veh, TFRC / RFU, ZDHHC17 / Fold change vs veh, ZDHHC17 / RFU, NOM1 / Fold change vs veh, NOM1 / RFU, ARL8B / Fold change vs veh, ARL8B / RFU, ZBTB11 / Fold change vs veh, ZBTB11 / RFU, TAMM41 / Fold change vs veh, TAMM41 / RFU, KIAA1704 /// LOC100996395 / Fold change vs veh, KIAA1704 /// LOC100996395 / RFU, ING1 / Fold change vs veh, ING1 / RFU, TRMT61B / Fold change vs veh, TRMT61B / RFU, FUBP3 / Fold change vs veh, FUBP3 / RFU, TP53 / Fold change vs veh, TP53 / RFU, TNKS2 / Fold change vs veh, TNKS2 / RFU, ZFP14 / Fold change vs veh, ZFP14 / RFU, ACTR2 / Fold change vs veh, ACTR2 / RFU, PPP3R1 / Fold change vs veh, PPP3R1 / RFU, PIK3R1 / Fold change vs veh, PIK3R1 / RFU, HNRNPA1 / Fold change vs veh, HNRNPA1 / RFU, RNF170 / Fold change vs veh, RNF170 / RFU, ZNF28 / Fold change vs veh, ZNF28 / RFU, RNGTT / Fold change vs veh, RNGTT / RFU, OGT / Fold change vs veh, OGT / RFU, BRD1 / Fold change vs veh, BRD1 / RFU, MARS / Fold change vs veh, MARS / RFU, ZNF655 / Fold change vs veh, ZNF655 / RFU, FAHD1 / Fold change vs veh, FAHD1 / RFU, BDP1 / Fold change vs veh, BDP1 / RFU, LRRCC1 / Fold change vs veh, LRRCC1 / RFU, ARID1A / Fold change vs veh, ARID1A / RFU, ZNF146 / Fold change vs veh, ZNF146 / RFU, ZNF330 / Fold change vs veh, ZNF330 / RFU, GPN3 / Fold change vs veh, GPN3 / RFU, C9orf123 / Fold change vs veh, C9orf123 / RFU, N4BP2L2 / Fold change vs veh, N4BP2L2 / RFU, ARFIP1 / Fold change vs veh, ARFIP1 / RFU, FAM179B / Fold change vs veh, FAM179B / RFU, BCL10 / Fold change vs veh, BCL10 / RFU, UHRF1BP1L / Fold change vs veh, UHRF1BP1L / RFU, BET1 / Fold change vs veh, BET1 / RFU, CNOT2 / Fold change vs veh, CNOT2 / RFU, ZNF268 / Fold change vs veh, ZNF268 / Fold change vs veh, ZNF507 / RFU, DGCR2 / Fold change vs veh, DGCR2 / RFU, WDSUB1 / Fold change vs veh, WDSUB1 / Fold change vs veh, HSP90B1 /// MIR3652 / RFU, ADSS / Fold change vs veh, ADSS / RFU, GK / Fold change vs veh, GK / RFU, ZNF148 / Fold change vs veh, ZNF148 / RFU, TAF9 / Fold change vs veh, TAF9 / RFU, SLC1A5 / Fold change vs veh, SLC1A5 / RFU, SLMO2 / Fold change vs veh, SLMO2 / RFU, ABCC4 / Fold change vs veh, ABCC4 / RFU, LOC101060439 /// RAP1B / Fold change vs veh, LOC101060439 /// RAP1B / RFU, RFX7 / Fold change vs veh, RFX7 / RFU, GTPBP10 / Fold change vs veh, GTPBP10 / RFU, CNEP1R1 / Fold change vs veh, CNEP1R1 / RFU, BIVM-ERCC5 /// ERCC5 / Fold change vs veh, BIVM-ERCC5 /// ERCC5 / RFU, ILF3 / Fold change vs veh, ILF3 / RFU 11762660_at / Fold change /veh 11762660_at / RFU VCAN (11757783_s_at) / Fold change /veh VCAN (11757783_s_at) / RFU DDX43 (11728927_at) / Fold change /veh DDX43 (11728927_at) / RFU KRT8 (11758188_x_at) / Fold change /veh KRT8 (11758188_x_at) / RFU NKD1 (11759106_at) / Fold change /veh NKD1 (11759106_at) / RFU SRD5A1 (11742802_a_at) / Fold change /veh SRD5A1 (11742802_a_at) / RFU TPSAB1 /// TPSB2 (11721975_s_at) / Fold change /veh TPSAB1 /// TPSB2 (11721975_s_at) / RFU GSTM3 (11746129_a_at) / Fold change /veh GSTM3 (11746129_a_at) / RFU IL23R (11737362_x_at) / Fold change /veh IL23R (11737362_x_at) / RFU TMEM51 (11727254_a_at) / Fold change /veh TMEM51 (11727254_a_at) / RFU PIWIL2 (11732686_x_at) / Fold change /veh PIWIL2 (11732686_x_at) / RFU ORM1 (11744905_x_at) / Fold change /veh ORM1 (11744905_x_at) / RFU CCDC152 (11743942_at) / Fold change /veh CCDC152 (11743942_at) / RFU ECM1 (11717891_a_at) / Fold change /veh ECM1 (11717891_a_at) / RFU IL23R (11748794_a_at) / Fold change /veh IL23R (11748794_a_at) / RFU TNFAIP8L3 (11732012_x_at) / Fold change /veh TNFAIP8L3 (11732012_x_at) / RFU MBOAT4 (11741988_at) / Fold change /veh MBOAT4 (11741988_at) / RFU 11764193_at / Fold change /veh 11764193_at / RFU TMEM53 (11763286_at) / Fold change /veh TMEM53 (11763286_at) / RFU MAGEB2 (11727129_at) / Fold change /veh MAGEB2 (11727129_at) / RFU TMEM200A (11744735_a_at) / Fold change /veh TMEM200A (11744735_a_at) / RFU CCDC152 (11751479_a_at) / Fold change /veh CCDC152 (11751479_a_at) / RFU FAM211A (11726209_a_at) / Fold change /veh FAM211A (11726209_a_at) / RFU RGS16 (11746705_a_at) / Fold change /veh RGS16 (11746705_a_at) / RFU VCAN (11755009_s_at) / Fold change /veh VCAN (11755009_s_at) / RFU RHOB (11743442_s_at) / Fold change /veh RHOB (11743442_s_at) / RFU RGS16 (11720943_a_at) / Fold change /veh RGS16 (11720943_a_at) / RFU RGS16 (11720944_at) / Fold change /veh RGS16 (11720944_at) / RFU, VPS4B / Fold change vs veh, VPS4B / RFU, CREB1 / Fold change vs veh, CREB1 / RFU, DNAJC13 / Fold change vs veh, DNAJC13 / RFU, GNAQ / Fold change vs veh, GNAQ / RFU, CDK5R1 / Fold change vs veh, CDK5R1 / RFU, ZRANB3 / Fold change vs veh, ZRANB3 / RFU, CUL4A / Fold change vs veh, CUL4A / RFU, CCNY / Fold change vs veh, CCNY / RFU, UFL1 / Fold change vs veh, UFL1 / RFU, COG3 / Fold change vs veh, COG3 / RFU, DIAPH2 / Fold change vs veh, DIAPH2 / RFU, SKA2 / Fold change vs veh, SKA2 / RFU, AFF3 / Fold change vs veh, AFF3 / RFU, LMF1 / Fold change vs veh, LMF1 / RFU, IPO11 / Fold change vs veh, IPO11 / RFU, DFFB / Fold change vs veh, DFFB / RFU, FOXP1 / Fold change vs veh, FOXP1 / RFU, CARD8 / Fold change vs veh, CARD8 / RFU, STRN3 / Fold change vs veh, STRN3 / RFU, ADK / Fold change vs veh, ADK / RFU, RASSF2 / Fold change vs veh, RASSF2 / RFU, WIPF1 / Fold change vs veh, WIPF1 / RFU, LARP1B / Fold change vs veh, LARP1B / RFU, RASA1 / Fold change vs veh, RASA1 / RFU, RB1 / Fold change vs veh, RB1 / RFU, PPFIA1 / Fold change vs veh, PPFIA1 / RFU, MAT2A / Fold change vs veh, MAT2A / RFU, CCT5 / Fold change vs veh, CCT5 / RFU, WDR92 / Fold change vs veh, WDR92 / RFU, CUX1 / Fold change vs veh, CUX1 / RFU, TTC7A / Fold change vs veh, TTC7A / RFU, TMEM135 / Fold change vs veh, TMEM135 / RFU, DEPTOR / Fold change vs veh, DEPTOR / RFU, CPM / Fold change vs veh, CPM / RFU, DNAJB6 / Fold change vs veh, DNAJB6 / RFU, CACNA2D3 / Fold change vs veh, CACNA2D3 / RFU, DTX4 / Fold change vs veh, DTX4 / RFU, TFCP2 / Fold change vs veh, TFCP2 / RFU, GMCL1 /// GMCL1P1 / Fold change vs veh, GMCL1 /// GMCL1P1 / RFU, AEBP2 / Fold change vs veh, AEBP2 / RFU, SNHG1 /// SNORD22 /// SNORD25 /// SNORD26 /// SNORD27 /// SNORD28 /// SNORD29 /// SNORD31 / Fold change vs veh, SNHG1 /// SNORD22 /// SNORD25 /// SNORD26 /// SNORD27 /// SNORD28 /// SNORD29 /// SNORD31 / Fold change (Aza/veh), C12orf56 (ProbeSet 11735607_a_at) / Fold change (ACY-1035/veh), C12orf56 (ProbeSet 11735607_a_at) / Fold change (Aza/veh), FGFR1OP (ProbeSet 11751329_s_at) / Fold change (ACY-1035/veh), FGFR1OP (ProbeSet 11751329_s_at) / Fold change (Aza/veh), VPS36 (ProbeSet 11739960_a_at) / Fold change (ACY-1035/veh), VPS36 (ProbeSet 11739960_a_at) / RFU SYPL1 (11715823_x_at) / Fold change /veh SYPL1 (11715823_x_at) / RFU IGFBP7 (11715501_s_at) / Fold change /veh IGFBP7 (11715501_s_at) / RFU REEP3 (11722064_at) / Fold change /veh REEP3 (11722064_at) / RFU IGLL1 (11728026_x_at) / Fold change /veh IGLL1 (11728026_x_at): dose or concentration left out as unconfirmed
Details: MV-4-11 cells, 48 hours

Nc1ccc(-c2cccs2)cc1NC(=O)c1ccc2c(c1)cc(C1CC1)n2CCN1CCOCC1 [ACY-1035]
Fold change /veh KRT8 (11758188_x_at): 1.06
